Some test systems named below: A549 NSCLC; COLO 205 colon; EKVX NSCLC; IGROV1 ovarian; MALME-3M melanoma; MDA-MB-435; NCI-H226 lung; NCI-H522 lung; SK-MEL-5 melanoma; SNB-75 CNS.
Common to all, as to experiment: NCI tumour cell line growth inhibition, 48 h

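Grown in 96-well plates, cells were treated for 48 hours with each compound at five concentrations. Insufficient inhibition: endpoint recorded as highest concentration tested. GI50 marks 50% less growth. The concentration for full growth arrest is given as TGI.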 Some results are limits rather than exact numbers.

Consider `O=C(Nc1nc(-c2ccc(Cl)cc2)nc2c1sc(=S)n2-c1ccccc1)C(F)(F)F`, for which the GI50 with A549 NSCLC is 3.88 µM; in the test on COLO 205 colon, 3.54 µM; in the test on EKVX NSCLC, 3.83 µM; in the test with IGROV1 ovarian, 3.9 µM; in the test on MALME-3M melanoma, 2.89 µM; in the test with MDA-MB-435, 5.4 µM. The GI50 was 2.89 µM with NCI-H226 lung, 4.72 µM in the test with NCI-H522 lung, 8.23 µM in the test on SK-MEL-5 melanoma and 1.68 µM in the test on SNB-75 CNS. In addition, the TGI was 18 µM in the test on A549 NSCLC; 32.6 µM with COLO 205 colon; 31.8 µM in the test with EKVX NSCLC; 14.3 µM in the test with IGROV1 ovarian; 7.08 µM in the test on MALME-3M melanoma; more than 100 µM in the test with MDA-MB-435. The TGI came to 9.61 µM in the test on NCI-H226 lung, 39.8 µM in the test with NCI-H522 lung, 32.3 µM in the test on SK-MEL-5 melanoma and 3.49 µM with SNB-75 CNS.
In the case of `O=C(Nc1cccc(Cl)c1)c1cc(N=Nc2ccc([N+](=O)[O-])cc2Cl)ccc1O`, the GI50 in the test on A549 NSCLC is 3.01 µM; in the test with COLO 205 colon it was 3.19 µM; with EKVX NSCLC, 2.16 µM; in the test with IGROV1 ovarian, 3.12 µM; with MALME-3M melanoma, 2.17 µM; in the test with MDA-MB-435, 2.34 µM. Moreover, the GI50 was 2.88 µM in the test on NCI-H226 lung, 2.94 µM in the test on NCI-H522 lung, 1.86 µM in the test with SK-MEL-5 melanoma and 2.65 µM in the test with SNB-75 CNS. Moreover, the TGI in the test on A549 NSCLC was more than 100 µM; with COLO 205 colon, 11 µM; in the test with EKVX NSCLC it was 6.57 µM; in the test with IGROV1 ovarian it was 19 µM; in the test on MALME-3M melanoma, 5.92 µM; in the test on MDA-MB-435, 5.96 µM. The TGI with NCI-H226 lung was 16.6 µM; in the test on NCI-H522 lung it was 6.95 µM; in the test with SK-MEL-5 melanoma it was 3.81 µM; in the test on SNB-75 CNS, 20.5 µM.
Turning to `COc1ccc(/C=C2\CC(C)CC3C2=NN(c2ccccc2)C3c2ccc(OC)c(OC)c2)cc1OC` (centres undefined), the GI50 was 5.72 µM in the test on A549 NSCLC; 4.67 µM in the test on COLO 205 colon; 5.61 µM in the test with EKVX NSCLC; 5.37 µM with IGROV1 ovarian; 8.64 µM with MALME-3M melanoma; 3.2 µM in the test with MDA-MB-435. Also, the GI50 is 3.09 µM in the test on NCI-H226 lung, 4.83 µM in the test with NCI-H522 lung, 2.41 µM in the test with SK-MEL-5 melanoma and 3.4 µM in the test on SNB-75 CNS. Also, the TGI in the test on A549 NSCLC, in the test with COLO 205 colon, with EKVX NSCLC, in the test with IGROV1 ovarian, in the test on MALME-3M melanoma and with MDA-MB-435 was more than 100 µM each time. The TGI is 9.75 µM with NCI-H226 lung, more than 100 µM in the test on NCI-H522 lung, 6.94 µM in the test with SK-MEL-5 melanoma and 18.5 µM in the test with SNB-75 CNS.
For the compound `C=C1C(=O)OC2CC3(C)CCCC(C)C3=CC12` (centres undefined), the TGI in the test with A549 NSCLC came to 26.8 µM; in the test on COLO 205 colon, 2.56 µM; with EKVX NSCLC, 24.3 µM; in the test on IGROV1 ovarian, 22.4 µM; in the test with MALME-3M melanoma it was 16.7 µM; with MDA-MB-435, 14.1 µM. Moreover, the TGI in the test on NCI-H226 lung is 30.3 µM; with NCI-H522 lung, 3.97 µM; with SK-MEL-5 melanoma it was 4.6 µM; with SNB-75 CNS, 11.2 µM.
For the compound `CC[C@]12C=CCN3CC[C@@]4(c5ccc(OC)cc5N(C)[C@H]4[C@@](O)(C(=O)OC)[C@@H]1OC(=O)CCC(=O)N[C@H](Cc1c[nH]c4ccccc14)C(=O)OC)[C@@H]32`, the GI50 is 5.36 µM in the test on A549 NSCLC; 3.47 µM with COLO 205 colon; 10.7 µM in the test with EKVX NSCLC; 4.3 µM in the test with IGROV1 ovarian; 2.6 µM in the test with MALME-3M melanoma; 5.42 µM with MDA-MB-435. For the same compound, the GI50 in the test with NCI-H226 lung is 5.39 µM; with NCI-H522 lung, 14.4 µM; with SK-MEL-5 melanoma, 2.54 µM; in the test with SNB-75 CNS, 2.23 µM. Also, the TGI with A549 NSCLC is 22.1 µM; in the test with COLO 205 colon, 14.3 µM; in the test on EKVX NSCLC it was 35.7 µM; in the test on IGROV1 ovarian, 24.1 µM; in the test with MALME-3M melanoma, 8.09 µM; in the test with MDA-MB-435, 22.5 µM. In addition, the TGI in the test with NCI-H226 lung is 27.5 µM; in the test on NCI-H522 lung it was 34.9 µM; in the test on SK-MEL-5 melanoma, 7.14 µM; in the test on SNB-75 CNS, 14.1 µM.
On to `Cc1cc(NNC(=O)c2ccccc2O)nc(Nc2nc3ccccc3o2)n1`, for which the GI50 was 1.13 µM in the test on A549 NSCLC; 2.75 µM in the test with COLO 205 colon; 2.81 µM in the test with EKVX NSCLC; 1.3 µM in the test with IGROV1 ovarian; 2.98 µM with MALME-3M melanoma; 3.02 µM in the test on MDA-MB-435. In addition, the GI50 was 1.66 µM with NCI-H226 lung, 2.5 µM in the test on NCI-H522 lung, 1.11 µM with SK-MEL-5 melanoma and 3.49 µM with SNB-75 CNS. In addition, the TGI in the test with A549 NSCLC was 10.3 µM; with COLO 205 colon, 15.4 µM; with EKVX NSCLC, 15.2 µM; in the test with IGROV1 ovarian, 12.2 µM; with MALME-3M melanoma it was 15.5 µM; with MDA-MB-435, 17.8 µM. Besides, the TGI turned out to be 8.47 µM in the test on NCI-H226 lung, 12.9 µM in the test on NCI-H522 lung, 6.72 µM in the test with SK-MEL-5 melanoma and 17.4 µM in the test on SNB-75 CNS.
In the case of `O=C(Cn1c(C(=O)c2ccccc2)nc2ccccc21)c1ccc(F)cc1`, the GI50 is 22.9 µM with A549 NSCLC; 17.9 µM with COLO 205 colon; 21.1 µM with EKVX NSCLC; 10.9 µM in the test on IGROV1 ovarian; 11.1 µM with MALME-3M melanoma; 1.19 µM with MDA-MB-435. The GI50 in the test with NCI-H226 lung is more than 100 µM; in the test with NCI-H522 lung, 5.92 µM; with SK-MEL-5 melanoma it was 4.13 µM; in the test with SNB-75 CNS, 10.5 µM. Further, the TGI was more than 100 µM in the test on A549 NSCLC; more than 64.5 µM with COLO 205 colon; more than 100 µM in the test on EKVX NSCLC; more than 100 µM in the test with IGROV1 ovarian; more than 100 µM with MALME-3M melanoma; more than 100 µM in the test with NCI-H226 lung. For the same compound, the results for the TGI in the test on NCI-H522 lung, with SK-MEL-5 melanoma and with SNB-75 CNS were more than 62.9 µM, more than 82.2 µM and more than 100 µM, respectively.
As to `CC1=NN(C(=O)c2ccncc2)C(=O)C1N=Nc1ccc2ccccc2c1` (centres undefined), the TGI in the test with A549 NSCLC is more than 100 µM; with COLO 205 colon, more than 100 µM; in the test with EKVX NSCLC, more than 100 µM; in the test with IGROV1 ovarian it was more than 100 µM; in the test with MALME-3M melanoma, more than 100 µM; in the test on MDA-MB-435, 15.2 µM. The TGI in the test with NCI-H226 lung, in the test with NCI-H522 lung, in the test on SK-MEL-5 melanoma and in the test on SNB-75 CNS was more than 100 µM in each case.

Values taken from PubChem BioAssay (NCI).
